# Data from patent US20200002670A1, “Generation of Endocrine Progenitor Cells from Human Pluripotent Stem Cells Using Small Molecules” (Novo Nordisk A/S, priority 2013, published 2020).
# Assays:
# Format in all cases: cell-based, human
# [1] = system: pancreatic endoderm cells; assay: NGN3/NKX2.2 double positive cells by immunostaining and InCell imaging after PE to EP differentiation
# Description: After three days of EP differentiation, at EP day 4, media were aspirated followed by fixation of the cells at room temperature for 30 min with 4% paraformaldehyde (VWR, 97.131.000). Cells were washed with PBS and permeabilized with 0.5% Triton X-100 (Sigma, 9002-93-1) for 10 min, washed and blocked in 0.5% TNB-buffer (Perkin Elmer) for 30 min at room temperature. Primary antibodies, sheep anti-NGN3 (R&D systems #AF3444) and rabbit anti-NKX2.2 (Sigma #HPA003468) were diluted 1:1000 and 1:500, respectively, in 0.1% Triton X-100 in PBS and added to each well for overnight incubation at 4° C. Cells were washed three times with PBS. DAPI (4′,6-diamidino-2-phenylindole, Applichem, A4099.0010) and secondary antibodies, Alexa Fluor 488 donkey anti-goat and Alexa Fluor 594 donkey anti-rabbit (both Invitrogen) were diluted 1:1000 in 0.1% Triton X-100 in PBS and added to each well for 45 min. Cells were washed five times and left in 200 μL PBS for imaging. Imaging was performed using the InCell Analyzer 2000 (GE Healthcare). 4 fields per well with 10× objective were captured. The total cell number based in the DAPI counterstaining and the number of NGN3/NKX2.2 double positive cells was determined using InCell Developer Toolbox 1.8 (GE Healthcare). The fraction of NGN3/NKX2.2 double positive cells were quantified using the InCell developer toolbox software (GE Healthcare) and normalized to the combined protocol K&N (example 2) on each plate and the % effect was calculated (% effect NGN3/NKX2.2 double positive=((S−Sneg)/(|Spos−Sneg|))*100). Wherein S is % NGN3/NKX2.2 double positive cells for a given compound combination, Sneg and Spos are % NGN3/NKX2.2 double positive cells for the negative control and combined protocol K&N, respectively).
# An EP cell population was prepared according to examples 1 and 2. However, in addition to the reagents used in example 2 the small molecules listed in table 3 were added for three days at concentrations specified in table 3 below in concentrations as shown. After three days of EP differentiation media were aspirated followed by fixation of the cells at room temperature for 30 min with 4% paraformaldehyde (VWR, 97.131.000). Cells were washed with PBS and permeabilized with 0.5% Triton X-100 (Sigma, 9002-93-1) for 10 min, washed and blocked in 0.5% TNB-buffer (Perkin Elmer) for 30 min at room temperature. Primary antibodies, sheep anti-NGN3 (R&D systems #AF3444) and rabbit anti-NKX2.2 (Sigma #HPA003468) were diluted 1:1000 and 1:500, respectively, in 0.1% Triton X-100 in PBS and added to each well for overnight incubation at 4° C. Cells were washed three times with PBS. DAPI (4′,6-diamidino-2-phenylindole, Applichem, A4099.0010) and secondary antibodies, Alexa Fluor 488 donkey anti-goat and Alexa Fluor 594 donkey anti-rabbit (both Invitrogen) were diluted 1:1000 in 0.1% Triton X-100 in PBS and added to each well for 45 min. Cells were washed five times and left in 200 μL PBS for imaging.
# Imaging was performed using the InCell Analyzer 2000 (GE Healthcare). 4 fields per well with 10× objective were captured. The total cell number based in the DAPI counterstaining and the number of NGN3/NKX2,2 double positive cells was determined using InCell Developer Toolbox 1.8 (GE Healthcare). The fraction of NGN3/NKX2.2 double positive cells were quantified using the InCell developer toolbox software (GE Healthcare) and normalized to the combined protocol K&N on each plate and the % effect was calculated (% effect NGN3/NKX2.2 double positive=((S−Sneg)/(|Spos−Sneg|))*100). Wherein S is % NGN3/NKX2.2 double positive cells for a given compound combination, Sneg and Spos are % NGN3/NKX2.2 double positive cells for the negative control and combined protocol K&N, respectively).
# [2] = system: SA121 (hES) derived pancreatic endoderm cells; assay: NGN3/NKX2.2 double positive cells by imaging, small molecule combinations, SA121 (hES); details: Method of example 2 + 2.5 μM DAPT
# Description: (§1) An EP cell population was prepared according to example 2. However, in addition to the reagents used in example 2, certain small molecules listed in table 3 were added either alone or in combination during the three days of EP differentiation. After three days of EP differentiation media were aspirated followed by fixation of the cells at room temperature for 30 min with 4% paraformaldehyde (VWR, 97.131.000). Cells were washed with PBS and permeabilized with 0.5% Triton X-100 (Sigma, 9002-93-1) for 10 min, washed and blocked in 0.5% TNB-buffer (Perkin Elmer) for 30 min at room temperature. […] Cells were washed three times with PBS. DAPI (4',6-diamidino-2-phenylindole, Applichem, […]10) and secondary antibodies, Alexa Fluor 488 donkey anti-goat and Alexa Fluor 594 donkey anti-rabbit (both Invitrogen) were diluted 1:1000 in 0.1% Triton X-100 in PBS and added to each well for 45 min. Cells were washed five times and left in 200 μL PBS for imaging. Imaging was performed using the InCell Analyzer 2000 (GE Healthcare). 4 fields per well with 10× objective were captured.
# [3] = system: CHiPS2 (iPS) derived pancreatic endoderm cells; assay: NGN3/NKX2.2 double positive cells by imaging, small molecule combinations, CHiPS2 (iPS); details: Method of example 2 + 2.5 μM DAPT
# Description: as §1
# [4] = 5 μM added to method of example 2 for three days
# [5] = 10 μM added to method of example 2 for three days
# [6] = 1 μM added to method of example 2 for three days
# [7] = 0.1 μM added to method of example 2 for three days
# [8] = 0.5 μM added to method of example 2 for three days
SMILES,"% effect NGN3/NKX2.2 double positive cells [1, 4]","% effect NGN3/NKX2.2 double positive cells [1, 5]","% effect NGN3/NKX2.2 double positive cells [1, 6]",also measured
c1ccc2c(-c3ccncc3)c[nH]c2c1 [Rockout],208%,199%,–,–
CSc1nc(-c2ccc(F)cc2)c(-c2ccnc(NC(C)c3ccccc3)c2)[nH]1 (stereo not shown) [p38 inhibitor III],191%,153%,–,–
COc1cccc(-c2cc(=O)c3ccccc3o2)c1N [PD98059],–,–,165%,–
COc1cc2ncnc(Nc3ccc(F)c(Cl)c3)c2cc1OCCCN1CCOCC1 [Gefitinib],325%,–,311%,"% effect NGN3/NKX2.2 double positive cells [1, 7]: 222%"
O=C(c1ccccc1)c1ccc(N2CCOCC2)cc1O [DNA-PK inhibitor V],370%,–,–,–
CCC(=O)Nc1ccc2ncnc(Nc3cccc(Br)c3)c2c1 [PD174265],374%,274%,240%,–
C[C@H](NC(=O)Cc1cc(F)cc(F)c1)C(=O)N[C@H](C(=O)OC(C)(C)C)c1ccccc1 [DAPT],–,–,–,"% effect NGN3/NKX2.2 double positive cells [1, 8]: 150%; % effect NGN3/NKX2.2 double positive cells ([1]; 2.5 μM added to method of example 2 for three days): 350%; % effect NGN3/NKX2.2 double positive cells ([1]; 25 μM added to method of example 2 for three days): 300%; % effect NGN3/NKX2.2 double positive cells, SA121 (hES) [2]: 165%; % effect NGN3/NKX2.2 double positive cells, CHiPS2 (iPS) [3]: 167%"
CC(C)CC(NC(=O)C(Cc1ccccc1)CC(O)C(Cc1ccccc1)NC(=O)OC(C)(C)C)C(=O)NC(Cc1ccccc1)C(N)=O (stereo not shown) [L6],–,–,–,% effect NGN3/NKX2.2 double positive cells ([1]; 50 μM added to method of example 2 for three days): 150%
Cn1cc(/C=C2\C(=O)Nc3ccc(S(N)(=O)=O)cc32)c2ccccc21 [Syk inhibitor],–,–,157%,–
CCOc1nc(NC(=O)Cc2cc(OC)ccc2OC)cc(N)c1C#N [JNK VIII],315%,308%,204%,"% effect NGN3/NKX2.2 double positive cells [1, 7]: 160%; % effect NGN3/NKX2.2 double positive cells [1, 8]: 156%"
Cn1cnc2cc3c(Nc4cccc(Br)c4)ncnc3cc21 [BPIQ-I],–,350%,–,–
C[C@H](NC(=O)Cc1cc(F)cc(F)c1)C(=O)N[C@@H]1C(=O)N(C)c2ccccc2-c2ccccc21 [CompE],–,–,–,% effect NGN3/NKX2.2 double positive cells ([1]; 5 nM added to method of example 2 for three days): 250%; % effect NGN3/NKX2.2 double positive cells ([1]; 50 nM added to method of example 2 for three days): 325%; % effect NGN3/NKX2.2 double positive cells ([1]; 500 nM added to method of example 2 for three days): 395%
"CN(C)c1ccc(/C=C2/C(=O)Nc3ccccc32)cc1 [DMBI, (Z)-3-[4-(Dimethylamino)benzylidenyl]indolin-2-one]",167%,231%,–,–
Cc1cccc(-c2nc(C(C)(C)C)[nH]c2-c2ccc3c(c2)OCO3)n1.Cl [TGFbRI inhibitor III],182%,–,–,–
